Molecular target: human AChE (Homo sapiens, UniProt P22303)
Test: coupled Ellman assay, second-order hydrolysis
Type: biochemical

Sequence of human AChE (P22303 32-614): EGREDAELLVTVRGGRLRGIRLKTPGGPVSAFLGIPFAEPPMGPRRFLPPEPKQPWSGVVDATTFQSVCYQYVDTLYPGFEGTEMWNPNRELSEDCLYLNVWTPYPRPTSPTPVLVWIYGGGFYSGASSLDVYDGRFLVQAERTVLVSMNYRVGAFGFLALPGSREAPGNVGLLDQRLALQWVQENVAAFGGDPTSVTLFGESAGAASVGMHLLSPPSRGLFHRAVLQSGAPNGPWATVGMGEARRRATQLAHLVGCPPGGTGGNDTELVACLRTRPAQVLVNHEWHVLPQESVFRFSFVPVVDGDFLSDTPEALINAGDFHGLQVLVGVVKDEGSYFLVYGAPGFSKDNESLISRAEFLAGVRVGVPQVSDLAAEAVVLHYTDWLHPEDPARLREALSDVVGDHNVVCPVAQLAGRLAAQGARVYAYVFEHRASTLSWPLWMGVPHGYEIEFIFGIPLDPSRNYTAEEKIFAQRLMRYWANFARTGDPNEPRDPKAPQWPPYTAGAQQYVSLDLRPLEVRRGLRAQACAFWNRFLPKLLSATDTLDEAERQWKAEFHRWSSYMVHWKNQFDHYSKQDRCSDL

Cc1ccc2c(c1)sc(-c1ccc(N(C)C)cc1)[n+]2C [thioflavin T]
Ki: 1330 ± 50 nM

— article PMC3586822 (Chemico-biological interactions, 2012)
